This assay addresses Human factor D (Homo sapiens (Human), UniProt P00746). In words: Human Factor D Assay. It is filed as biochemical. The following applies: Human factor D 80 nM, substrate Z-L-Lys-SBzl and DTNB 100 μM each, pH 7.5. The procedure: Example 14. Human Factor D Assay
Human factor D (purified from human serum, Complement Technology, Inc.) at 80 nM final concentration is incubated with test compound at various concentrations for 5 minutes at room temperature in 50 mM Tris, 1M NaCl, pH 7.5. A synthetic substrate Z-L-Lys-SBzl and DTNB (Ellman's reagent) are added to final concentrations of 100 μM each. The increase in color is recorded at OD405 nm in a microplate in kinetic mode over 30 minutes with 30 second time points in a spectrofluorimeter. IC50 values are calculated by non-linear regression from the percentage of inhibition of complement factor D activity as a function of test compound concentration.
Chain of Human factor D (P00746 26-253): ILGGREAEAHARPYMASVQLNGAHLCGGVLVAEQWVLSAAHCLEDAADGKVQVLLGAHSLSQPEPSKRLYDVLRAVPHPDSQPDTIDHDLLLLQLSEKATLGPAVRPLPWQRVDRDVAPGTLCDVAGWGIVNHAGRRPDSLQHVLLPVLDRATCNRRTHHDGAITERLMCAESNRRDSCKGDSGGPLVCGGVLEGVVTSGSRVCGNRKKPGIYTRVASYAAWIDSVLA
By IC50 is commonly meant the concentration needed to halve the response being measured. In turn, `NC(=O)c1nn(CC(=O)N2[C@@H]3C[C@@H]3C[C@H]2C(=O)Nc2cccc(-c3ccccc3Cl)c2F)c2ccc(NC(=O)N3CCCC(F)(F)C3)cc12` [Compound 28, 1-(2-((1R,3S,5R)-3-(2′-chloro-2-fluorobiphenyl-3-ylcarbamoyl)-2-azabicyclo[3.1.0]hexan-2-yl)-2-oxoethyl)-5-(3,3-difluoropiperidine-1-carboxamido)-1H-indazole-3-carboxamide] displayed an IC50 of less than 1000 nM.
In the case of `CC(=O)c1cn(CC(=O)N2C[C@H](F)C[C@H]2C(=O)NCc2cccc(Cl)c2F)c2cc(C(=O)NCC3CCNC3)ccc12` (stereo partly drawn) [Compound 49, 3-acetyl-1-(2-((2S,4R)-2-(3-chloro-2-fluorobenzylcarbamoyl)-4-fluoropyrrolidin-1-yl)-2-oxoethyl)-N-(pyrrolidin-3-ylmethyl)-1H-indole-6-carboxamide] it was less than 1000 nM.
Turning to `CC(=O)c1cn(CC(=O)N2[C@@H]3C[C@@H]3C[C@H]2C(=O)Nc2cccc(OC(F)(F)F)c2F)c2ccc(NC(=O)NC3CC3)cc12` [Compound 11, (1R,3S,5R)-2-(2-(3-acetyl-5-(3-cyclopropylureido)-1H-indol-1-yl)acetyl)-N-(2-fluoro-3-(trifluoromethoxy)phenyl)-2-azabicyclo[3.1.0]hexane-3-carboxamide], the IC50 was less than 1000 nM.
In the case of `CC(=O)c1cn(CC(=O)N2C[C@H](F)C[C@H]2C(=O)NCc2cccc(Cl)c2F)c2cc(C(=O)NS(=O)(=O)c3ccccc3)ccc12` [Compound 53] it was less than 1000 nM; in that of `CC(=O)c1cn(CC(=O)N2C[C@H](F)C[C@H]2C(=O)NCc2cccc(Cl)c2F)c2cc(C(=O)N[C@H]3CCN(C(C)=O)C3)ccc12` [Compound 46, 3-acetyl-N-((S)-1-acetylpyrrolidin-3-yl)-1-(2-((2S,4R)-2-(3-chloro-2-fluorobenzylcarbamoyl)-4-fluoropyrrolidin-1-yl)-2-oxoethyl)-1H-indole-6-carboxamide], less than 1000 nM.
Turning to `CC(=O)c1cn(CC(=O)N2C[C@H](F)C[C@H]2C(=O)NCc2cccc(Cl)c2F)c2ccc(NC(=O)NCc3ncccn3)cc12` [Compound 8, (2S,4R)-1-(2-(3-acetyl-5-(3-(pyrimidin-2-ylmethyl)ureido)-1H-indol-1-yl)acetyl)-N-(3-chloro-2-fluorobenzyl)-4-fluoropyrrolidine-2-carboxamide], the half-maximal inhibitory concentration (IC50) is less than 1000 nM.
`CC(=O)c1cn(CC(=O)N2[C@@H]3C[C@@H]3C[C@H]2C(=O)N[C@H](C)c2cccc(Cl)c2F)c2ccc(NC(=O)NC3CC3)cc12` [Compound 5, (1R,3S,5R)-2-(2-(3-acetyl-5-(3-cyclopropylureido)-1H-indol-1-yl)acetyl)-N-((R)-1-(3-chloro-2-fluorophenyl)ethyl)-2-azabicyclo[3.1.0]hexane-3-carboxamide] gave a half-inhibitory concentration (IC50) of less than 1000 nM.
In the case of `CC(=O)c1cn(CC(=O)N2C[C@H](F)C[C@H]2C(=O)NCc2cccc(Cl)c2F)c2cc(C(=O)NCC3CCN(C(=O)OC(C)(C)C)C3)ccc12` (stereo partly drawn) [Compound 50] it was less than 1000 nM; in that of `CC(=O)c1cn(CC(=O)N2C[C@H](F)C[C@H]2C(=O)NCc2cccc(Cl)c2F)c2cc(C(=O)NS(C)(=O)=O)ccc12` [Compound 43, 3-acetyl-1-(2-((2S,4R)-2-(3-chloro-2-fluorobenzylcarbamoyl)-4-fluoropyrrolidin-1-yl)-2-oxoethyl)-N-(methylsulfonyl)-1H-indole-6-carboxamide], less than 1000 nM; in that of `CC(=O)c1cn(CC(=O)N2C[C@H](F)C[C@H]2C(=O)NCc2cccc(Cl)c2F)c2ccc(NC(=O)N3CCC(F)(F)C3)cc12` [Compound 13], less than 1000 nM.
With `CC(=O)c1cn(CC(=O)N2[C@@H]3C[C@@H]3C[C@H]2C(=O)NCc2cccc(Cl)c2F)c2ccc(NC(=O)NC3CC3)cc12` [Compound 3, (1R,3S,5R)-2-(2-(3-acetyl-5-(3-cyclopropylureido)-1H-indol-1-yl)acetyl)-N-(3-chloro-2-fluorobenzyl)-2-azabicyclo[3.1.0]hexane-3-carboxamide], the half-maximal inhibitory concentration (IC50) is less than 1000 nM.
In turn, `CC(=O)c1cn(CC(=O)N2C[C@H](F)C[C@H]2C(=O)NCc2cccc(Cl)c2F)c2ccc(NC(=O)NCc3ccon3)cc12` [Compound 7, (2S,4R)-1-(2-(3-acetyl-5-(3-(isoxazol-3-ylmethyl)ureido)-1H-indol-1-yl)acetyl)-N-(3-chloro-2-fluorobenzyl)-4-fluoropyrrolidine-2-carboxamide] yielded an IC50 of less than 1000 nM.
On to `NC(=O)c1nn(CC(=O)N2C[C@H](F)C[C@H]2C(=O)Nc2cccc(OC(F)(F)F)c2F)c2ccc(NC(=O)Nc3ccon3)cc12` [Compound 25, 1-(2-((2S,4R)-4-fluoro-2-(2-fluoro-3-(trifluoromethoxy)phenylcarbamoyl)pyrrolidin-1-yl)-2-oxoethyl)-5-(3-isoxazol-3-ylureido)-1H-indazole-3-carboxamide], for which the IC50 is less than 1000 nM.
With `CC(=O)c1cn(CC(=O)N2C[C@H](F)C[C@H]2C(=O)NCc2cccc(Cl)c2F)c2cc(C(=O)N[C@H]3CCNC3)ccc12` [Compound 45, 3-acetyl-1-(2-((2S,4R)-2-(3-chloro-2-fluorobenzylcarbamoyl)-4-fluoropyrrolidin-1-yl)-2-oxoethyl)-N-((S)-pyrrolidin-3-yl)-1H-indole-6-carboxamide], the IC50 was less than 1000 nM.
In the case of `NC(=O)c1nn(CC(=O)N2[C@@H]3C[C@@H]3C[C@H]2C(=O)Nc2cccc(OC(F)(F)F)c2F)c2ccc(NC(=O)N3CCCC(F)(F)C3)cc12` [Compound 27, 5-(3,3-difluoropiperidine-1-carboxamido)-1-(2-((1R,3S,5R)-3-(2-fluoro-3-(trifluoromethoxy)phenylcarbamoyl)-2-azabicyclo[3.1.0]hexan-2-yl)-2-oxoethyl)-1H-indazole-3-carboxamide] it was less than 1000 nM; in that of `CC(=O)c1cn(CC(=O)N2C[C@H](F)C[C@H]2C(=O)NCc2cccc(Cl)c2F)c2cc(C(=O)N[C@H]3CCN(C(=O)OC(C)(C)C)C3)ccc12` [Compound 44, (S)-tert-butyl 3-(3-acetyl-1-(2-((2S,4R)-2-(3-chloro-2-fluorobenzylcarbamoyl)-4-fluoropyrrolidin-1-yl)-2-oxoethyl)-1H-indole-6-carboxamido) pyrrolidine-1-carboxylate], less than 1000 nM; in that of `COC(=O)C1CCN(C(=O)c2ccc3c(C(C)=O)cn(CC(=O)N4C[C@H](F)C[C@H]4C(=O)NCc4cccc(Cl)c4F)c3c2)C1` (stereo partly drawn) [Compound 51, methyl 1-(3-acetyl-1-(2-((2S,4R)-2-(3-chloro-2-fluorobenzylcarbamoyl)-4-fluoropyrrolidin-1-yl)-2-oxoethyl)-1H-indole-6-carbonyl)pyrrolidine-3-carboxylate], less than 1000 nM.
In the case of `CC(=O)c1cn(CC(=O)N2C[C@H](F)C[C@H]2C(=O)Nc2cccc(-c3ccccc3Cl)c2F)c2ccc(NC(=O)N3CCCC(F)(F)C3)cc12` [Compound 18, N-(3-acetyl-1-(2-((2S,4R)-2-(2′-chloro-2-fluorobiphenyl-3-ylcarbamoyl)-4-fluoropyrrolidin-1-yl)-2-oxoethyl)-1H-indol-5-yl)-3,3-difluoropiperidine-1-carboxamide] it was less than 1000 nM.
In the case of `CC(=O)c1cn(CC(=O)N2C[C@H](F)C[C@H]2C(=O)NCc2cccc(Cl)c2F)c2ccc(NC(=O)Nc3ccon3)cc12` [Compound 19, (2S,4R)-1-(2-(3-acetyl-5-(3-isoxazol-3-ylureido)-1H-indol-1-yl)acetyl)-N-(3-chloro-2-fluorobenzyl)-4-fluoropyrrolidine-2-carboxamide] it was less than 1000 nM; in that of `CC(=O)c1cn(CC(=O)N2C[C@H](F)C[C@H]2C(=O)NCc2cccc(Cl)c2F)c2ccc(NC(=O)N3Cc4cncnc4C3)cc12` [Compound 22, N-(3-acetyl-1-(2-((2S,4R)-2-(3-chloro-2-fluorobenzylcarbamoyl)-4-fluoropyrrolidin-1-yl)-2-oxoethyl)-1H-indol-5-yl)-5H-pyrrolo[3,4-d]pyrimidine-6(7H)-carboxamide], less than 1000 nM.
`CC(=O)c1cn(CC(=O)N2C[C@H](F)C[C@H]2C(=O)Nc2cccc(OC(F)(F)F)c2F)c2ccc(NC(=O)N3CCCC(F)(F)C3)cc12` [Compound 17, N-(3-acetyl-1-(2-((2S,4R)-4-fluoro-2-(2-fluoro-3-(trifluoromethoxy)phenylcarbamoyl)pyrrolidin-1-yl)-2-oxoethyl)-1H-indol-5-yl)-3,3-difluoropiperidine-1-carboxamide] came in with an IC50 of less than 1000 nM.
In the case of `NC(=O)c1nn(CC(=O)N2C[C@H](F)C[C@H]2C(=O)Nc2cccc(-c3ccccc3Cl)c2F)c2ccc(NC(=O)N3CCC(F)(F)CC3)cc12` [Compound 31, 1-(2-((2S,4R)-2-(2′-chloro-2-fluorobiphenyl-3-ylcarbamoyl)-4-fluoropyrrolidin-1-yl)-2-oxoethyl)-5-(4,4-difluoropiperidine-1-carboxamido)-1H-indazole-3-carboxamide] it was less than 1000 nM; in that of `CC(=O)c1cn(CC(=O)N2C[C@H](F)C[C@H]2C(=O)NCc2cccc(Cl)c2F)c2ccc(NC(=O)NCC(F)(F)F)cc12` [Compound 21, (2S,4R)-1-(2-(3-acetyl-5-(3-(2,2,2-trifluoroethyl)ureido)-1H-indol-1-yl)acetyl)-N-(3-chloro-2-fluorobenzyl)-4-fluoropyrrolidine-2-carboxamide], less than 1000 nM.
In the case of `CC(=O)c1cn(CC(=O)N2C[C@H](F)C[C@H]2C(=O)NCc2cccc(Cl)c2F)c2cc(C(=O)NS(=O)(=O)C3CC3)ccc12` [Compound 48, 3-acetyl-1-(2-((2S,4R)-2-(3-chloro-2-fluorobenzylcarbamoyl)-4-fluoropyrrolidin-1-yl)-2-oxoethyl)-N-(cyclopropylsulfonyl)-1H-indole-6-carboxamide] it was less than 1000 nM.
